The source made the active and inactive calls.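 Rule for the calls: active = compounds passing through the artificial lipid membrane faster than 100 units at the neutral pH 7.4; inactive = the rest.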
Test system: PAMPA double-sink, GIT-0 lipid, UV read-out
Assay: passive membrane permeability of hits, PAMPA, late-stage follow-up, ADME assay for GPR30 and estrogen receptor ligands, biophysical, double-sink PAMPA, aqueous buffer, pH 5.0/6.2/7.4 (AID 602462)
Conditions: stronger effect = higher value; for permeability Pe pH 5.0: measured here: permeability at pH 5.0; for permeability Pe pH 6.2: measured here: permeability at pH 6.2

| SMILES | permeability Pe pH 7.4 | permeability Pe pH 5.0 | permeability Pe pH 6.2 |
| --- | --- | --- | --- |
| CC(=O)c1ccc2c(c1)[C@@H]1C=CC[C@@H]1[C@H](c1cc3c(cc1Br)OCO3)N2 | 0 10^-6 cm/s (inactive) | 0 10^-6 cm/s | 0 10^-6 cm/s |
| COc1cc([N+](=O)[O-])cc2c1NC(C1CC=CCC1)C1CC=CC21 (stereo unspecified) | 117 10^-6 cm/s | 44 10^-6 cm/s | 120 10^-6 cm/s |

Reference: PubChem BioAssay AID602462 (NMMLSC, 2012)
